Assays:
[1] = biological target: T1, carboxylic acid reductase (aryl aldehyde oxidoreductase) (Nocardia iowensis, UniProt Q6RKB1); experiment: Kinetic properties of the purified carboxylic acid reductase (standard enzyme assay); details: for Vmax: purified enzyme, mean of three determinations
Protocol: (§1) Enzyme assay. The standard aryl-aldehyde oxidoreductase assay solution contained 0.15 mM […], 1 mM ATP, and 5 mM sodium benzoate, 10 mM MgCl2 and 0.01 to 0.3 units of enzyme in 50 mM Tris-HCl buffer in a final volume of 0.7 ml. The reference cuvette contained all components except for benzoate. Enzyme reactions were initiated by adding enzyme, and they were monitored by recording the absorption decrease at 340 nm at 25° C. with a Shimadzu 160 spectrophotometer.
Kinetic constants were obtained by fitting experimental data with the EZ-FIT program developed by Perrella (Perrella, Anal. Biochem. 174:437-447 (1987)).
S(+)-α-Methyl-4-[2-methylpropyl]-benzeneacetic acid (ibuprofen) was from Aldrich Chemical Co. R(-) isomer of ibuprofen was a gift from Dr. Ching-Shih Chen, University of Rhode Island (Chen et al., Biochim. Biophys. Acta 1033:1-6 (1990)). […] Substrate enantiopurities were checked by specific rotation determination for each isomer (Chen and Rosazza, Appl. Environ. Microbiol. 60(4):1292-1296 (1994)).

[2] = biological target: T2, oxidoreductase from Neurospora crassa (Neurospora crassa, UniProt Q7RW48); details: Eur. J. Biochem. 8:413 (1969); cited from earlier work
T2 construct: host or cells: crude Neurospora crassa preparation (Eur. J. Biochem. 8:413 (1969))
T2 sequence (Q7RW48 1-1052): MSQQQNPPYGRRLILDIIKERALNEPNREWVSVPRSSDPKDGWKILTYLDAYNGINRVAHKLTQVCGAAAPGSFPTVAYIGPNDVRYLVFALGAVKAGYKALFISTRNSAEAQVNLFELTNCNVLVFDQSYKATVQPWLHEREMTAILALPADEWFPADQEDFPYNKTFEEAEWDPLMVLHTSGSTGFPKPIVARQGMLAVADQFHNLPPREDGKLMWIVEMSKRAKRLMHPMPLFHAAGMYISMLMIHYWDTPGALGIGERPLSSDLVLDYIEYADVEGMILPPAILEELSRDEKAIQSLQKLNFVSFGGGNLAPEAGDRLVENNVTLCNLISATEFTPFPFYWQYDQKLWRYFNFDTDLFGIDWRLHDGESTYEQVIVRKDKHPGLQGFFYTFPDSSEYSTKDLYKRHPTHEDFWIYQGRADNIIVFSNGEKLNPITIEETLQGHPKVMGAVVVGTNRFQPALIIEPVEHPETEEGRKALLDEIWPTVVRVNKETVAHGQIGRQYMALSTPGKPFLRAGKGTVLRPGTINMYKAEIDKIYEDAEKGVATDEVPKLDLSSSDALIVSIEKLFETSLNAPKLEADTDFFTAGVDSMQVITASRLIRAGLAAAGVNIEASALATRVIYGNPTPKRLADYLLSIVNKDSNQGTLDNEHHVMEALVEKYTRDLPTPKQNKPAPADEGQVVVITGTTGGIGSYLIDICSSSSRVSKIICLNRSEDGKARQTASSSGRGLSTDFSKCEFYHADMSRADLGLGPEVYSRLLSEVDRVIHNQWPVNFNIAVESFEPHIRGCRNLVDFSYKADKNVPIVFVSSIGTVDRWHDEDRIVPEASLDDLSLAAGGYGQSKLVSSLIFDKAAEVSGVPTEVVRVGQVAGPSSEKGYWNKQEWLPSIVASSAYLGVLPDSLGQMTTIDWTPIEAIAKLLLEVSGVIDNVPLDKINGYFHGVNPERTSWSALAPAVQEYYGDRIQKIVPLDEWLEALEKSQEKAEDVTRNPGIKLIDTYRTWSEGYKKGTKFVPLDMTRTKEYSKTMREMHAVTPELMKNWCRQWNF

Nocardia sp. NRRL 5646 = experiment: Induction of the enzyme by benzoate in stage two cultures; type: cell-based; details: NRRL5646, 24 h, read-out: induction of specific activity of aryl aldehyde oxidoreductase in crude extracts
Protocol: Shaken flask cultures were grown by a standard two stage incubation protocol (Betts et al., J. Med. Chem. 17:599-602 (1974)) in 200 ml of sterile medium held in stainless steel-capped 1-liter DeLong culture flasks. The medium, containing (wt/vol) 2% glucose, 0.5% yeast extract, 0.5% soybean flour, 0.5% NaCl, and 0.5% K2 HPO4 in distilled water, was adjusted to pH 7.2 with 6 N HCl, and then autoclaved at 121° C. for 20 min. Cultures were incubated by shaking at 250 rpm at 28° C. on New Brunswick Scientific, C25 Gyrotory shakers. A 10% inoculum derived from a 72-hour first-stage culture was used to initiate the second-stage culture, which was incubated as before. […] The culture was harvested 24 hours after the addition of benzoate, the cells were collected from the medium by centrifugation at 8,000×g for 20 min., and washed twice with 0.9% NaCl. Cell pellets were stored at -38° C. until needed. Typical wet cell yields by this cultivation process were approximately 25 g/liter.
As a result, it was determined that the specific activity of aryl aldehyde oxidoreductase in crude extracts of Nocardia sp. NRRL 5646 could be induced up to 10 fold by the addition of up to 5 mg/ml benzoate to the 24 hour, stage two cultures.

[3] = biological target: T1, carboxylic acid reductase (aryl aldehyde oxidoreductase); experiment: Substrate specificity of crude carboxylic acid reductase (100,000×g supernatant); type: biochemical, Nocardia sp. NRRL 5646; design: Crude enzyme preparations consisting of 100,000×g supernatants were used in this study; endogenous in cells; host or cells: Nocardia sp; NRRL 5646, crude 100,000×g supernatant
Protocol: as §1
Crude enzyme preparations consisting of 100,000×g supernatants were used in this study. […] The relative rate of reduction for each carboxylic acid derivative is expressed as the percentage of the initial rate of benzoate reduction.
The range of oxidoreductase activities of crude, 100,000×g Nocardia extract with a variety of substrates was investigated. Various substituted 2-, 3- and 4-substituted benzoates were examined, including a range of ring-activating and ring-deactivating functional groups. Benzoates substituted with halogens, methyl, methoxy, hydroxy, acetyl, nitro, benzoyl, phenyl, and phenoxyl groups as well as aryl-ring systems containing two (naphthalene) and three (fluorene) rings, and heterocyclic aromatic acids including furoic, nicotinic and indole carboxylic acids were considered. In addition, one cinnamic acid derivative, phenyl-acetate, phenyl-malonate, phenyl-succinate and 2-phenylpropionic acid were studied.

T1 sequence (Q6RKB1 whole entry): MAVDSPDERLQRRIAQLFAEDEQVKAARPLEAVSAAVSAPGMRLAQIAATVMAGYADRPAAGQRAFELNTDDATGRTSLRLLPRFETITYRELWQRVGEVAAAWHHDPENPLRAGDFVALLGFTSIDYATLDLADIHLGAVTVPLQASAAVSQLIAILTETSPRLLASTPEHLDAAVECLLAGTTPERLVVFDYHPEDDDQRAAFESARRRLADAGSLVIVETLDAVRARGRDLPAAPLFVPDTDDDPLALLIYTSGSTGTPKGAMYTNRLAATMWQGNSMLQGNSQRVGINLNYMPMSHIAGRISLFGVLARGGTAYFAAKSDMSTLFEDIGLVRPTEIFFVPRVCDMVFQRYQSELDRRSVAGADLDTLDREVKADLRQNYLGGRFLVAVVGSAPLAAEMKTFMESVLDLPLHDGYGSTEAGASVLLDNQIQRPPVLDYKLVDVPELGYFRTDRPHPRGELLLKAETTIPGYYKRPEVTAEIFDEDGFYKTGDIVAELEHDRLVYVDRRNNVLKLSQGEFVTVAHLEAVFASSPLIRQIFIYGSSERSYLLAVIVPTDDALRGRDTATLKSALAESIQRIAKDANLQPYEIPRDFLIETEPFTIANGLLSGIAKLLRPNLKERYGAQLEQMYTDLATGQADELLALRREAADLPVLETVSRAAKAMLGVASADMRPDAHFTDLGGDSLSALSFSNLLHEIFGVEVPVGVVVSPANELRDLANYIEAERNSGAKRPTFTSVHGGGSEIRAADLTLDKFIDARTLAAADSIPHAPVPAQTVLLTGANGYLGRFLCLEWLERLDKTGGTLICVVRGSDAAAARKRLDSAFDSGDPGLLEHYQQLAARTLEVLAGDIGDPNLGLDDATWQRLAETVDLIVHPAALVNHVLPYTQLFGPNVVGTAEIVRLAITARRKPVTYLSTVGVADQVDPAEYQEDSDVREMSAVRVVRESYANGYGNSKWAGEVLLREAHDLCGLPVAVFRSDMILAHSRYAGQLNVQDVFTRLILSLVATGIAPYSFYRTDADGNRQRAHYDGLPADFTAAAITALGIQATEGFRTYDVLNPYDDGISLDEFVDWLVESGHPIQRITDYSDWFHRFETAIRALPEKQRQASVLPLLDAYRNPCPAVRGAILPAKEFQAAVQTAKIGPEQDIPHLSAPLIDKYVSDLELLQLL

SMILES: O=C(O)c1ccccc1 [benzoic acid]
- inhibition of the enzyme by benzoate ([1]; benzoate concentration up to 2 mM): no inhibition was observed
- apparent Km relative to Km reported for the enzyme from Nocardia asteroides ([1]; higher than values reported by Kato et al.): more than 1000 fold
- turnover number ([1]; pseudo-first order reaction conditions): 126 min⁻¹
- Vmax [1]: 0.902 ± 0.04 μmol/min/mg of protein
- Vmax ([1]; listed as benzoate): 0.902±0.04 μmol/min/mg of protein
- Km [2]: 63 µM
- benzoate concentration at which activity is inhibited [2]: 300 µM
- fold induction at 5000 µg/mL (Nocardia sp. NRRL 5646): ≤ 10
- Relative Activity ([3]; 5 mM substrate, 0.15 mM NADPH, 1 mM ATP, 50 mM Tris-HCl pH 7.5, percentage of the initial rate of benzoate reduction): 100 percentage
- quality as substrate of the enzyme (in words) ([3]; substrates of Table 2): best substrates
- rate of benzoate reduction ([3]; typical, crude enzyme, 5 mM): 0.066 ΔA340 /min
- rate of benzoate reduction (equivalent) ([3]; typical, crude enzyme, 5 mM): 10.6 µM/min
